Key:
virus H1N1 A/Weiss/43 = assay: microbe, parasite or virus in culture; assay type: cell-based; conditions: Influenza A virus, 120 h; inhibition of CPE caused by A/Weiss/43(H1N1) in MDCK cells, 5 days, CCK-8
[1] = SD, rat, in vivo, po, 5 mg/kg
Procedure: (§1) Pharmacokinetic characteristics of the compound of the invention in SD rat were evaluated. The compounds disclosed herein were administered in form of a saline solution containing 5% DMSO, 5% Kolliphor HS 15 and 90% Saline. For intravenous administration (i.v.), the animals were administered with a dose of 1 mg/kg, and blood samples (0.3 mL) were collected at the time points of 0.083, 0.25, 0.5, 1.0, 2.0, 5.0, 7.0 and 24 h after drug administration, then each blood sample was processed to separate plasma by centrifugation at 3000 rpm or 4000 rpm for 10 minutes. For oral administration (p.o.), the animals were administered with a dose of 5 mg/kg, and blood samples (0.3 mL) were collected at the time points of 0.25, 0.5, 1.0, 2.0, 5.0, 7.0 and 24 h after drug administration, then each blood sample was processed to separate plasma by centrifugation at 3000 rpm or 4000 rpm for 10 minutes. Plasma samples were collected and stored at −20° C. or −70° C. until LC/MS/MS analysis.

in vivo = conditions: SD, rat
Procedure: as §1

Structure (SMILES)	EC50 (virus H1N1 A/Weiss/43) [nM]	F [1] [%]	AUC(0-inf) (in vivo; iv, 1 mg/kg) [ng·h/mL]	AUC(0-t) (in vivo; iv, 1 mg/kg) [ng·h/mL]	Cmax (in vivo; iv, 1 mg/kg) [ng/mL]	Tmax (in vivo; iv, 1 mg/kg) [h]	Vd (in vivo; iv, 1 mg/kg) [L/kg]	clearance (in vivo; iv, 1 mg/kg) [mL/min/kg]	half-life (in vivo; iv, 1 mg/kg) [h]	AUC(0-inf) (in vivo; po, 5 mg/kg) [ng·h/mL]	AUC(0-t) (in vivo; po, 5 mg/kg) [ng·h/mL]	Cmax (in vivo; po, 5 mg/kg) [ng/mL]	Tmax (in vivo; po, 5 mg/kg) [h]	half-life (in vivo; po, 5 mg/kg) [h]
N#Cc1c(-c2c[nH]c3c(F)cc(F)cc23)nc(NC2C3CCC(CC3)C2C(=O)O)c(F)c1-c1ccco1 (racemic) [Example 1, (+/−)-trans-3-((5-cyano-6-(5,7-difluoro-1H-indol-3-yl)-3-fluoro-4-(furan-2-yl)pyridin-2-yl)amino)bicyclo[2.2.2]octane-2-carboxylic Acid]	0.27	83.9	5710	5680	6560	0.083	0.231	3.86	1.24	21600	21300	5780	1.1	1.52
N#Cc1c(-c2c[nH]c3c(F)cc(F)cc23)nc(NC2C3CCC(CC3)C2C(=O)O)c(F)c1-c1ccc(C(F)(F)F)cc1 (racemic) [Example 3, (+/−)-trans-3-((5-cyano-6-(5,7-difluoro-1H-indol-3-yl)-3-fluoro-4-(4-trifluoromethylphenyl)pyridin-2-yl)amino)bicyclo[2.2.2]octane-2-carboxylic Acid]		104.6	2620	2580	4340	0.083	1.98	7.18	1.13	13100	12600	8860	0.35	1.76
N#Cc1c(-c2c[nH]c3c(F)cc(F)cc23)nc(NC2C3CCC(CC3)C2C(=O)O)c(F)c1C1CC1 (racemic) [Example 8, (+/−)-trans-3-((5-cyano-4-cyclopropyl-6-(5,7-difluoro-1H-indol-3-yl)-3-fluoropyridin-2-yl)amino)bicyclo[2.2.2]octane-2-carboxylic Acid]	5.09													
N#Cc1c(-c2c[nH]c3ncc(F)cc23)nc(NC2C3CCC(CC3)C2C(=O)O)c(F)c1C1CC1 (racemic) [Example 9, (+/−)-trans-3-((5-cyano-4-cyclopropyl-3-fluoro-6-(5-fluoro-1H-pyrrolo[2,3-b]pyridin-3-yl)pyridin-2-yl)amino)bicyclo[2.2.2]octane-2-carboxylic Acid]	0.49	65.2	2710	2640	3640	0.083	0.551	5.46	2.15	8230	8140	2850	0.46	3.39
N#Cc1c(-c2c[nH]c3c(F)cc(F)cc23)nc(NC2C3CCC(CC3)C2C(=O)O)c(F)c1-c1ccccc1 (racemic) [Example 14, (+/−)-trans-3-((5-cyano-6-(5,7-difluoro-1H-indol-3-yl)-3-fluoro-4-phenylpyridin-2-yl)amino)bicyclo[2.2.2]octane-2-carboxylic Acid]	10.5	74.6	3520	3450	4130	0.083	0.432	5.12	1.31	10300	10100	2980	1.22	1.46
Cn1ccc2c(NC3C4CCC(CC4)C3C(=O)O)nc(-c3c[nH]c4ncc(F)cc34)cc21 (racemic) [Example 20, (+/−)-trans-3-((6-(5-fluoro-1H-pyrrolo[2,3-b]pyridin-3-yl)-1-methyl-1H-pyrrolo[3,2-c]pyridin-4-yl)amino)bicyclo[2.2.2]octane-2-carboxylic Acid]	2.58													
Cn1cc(-c2c(F)c(N[C@H]3C4CCC(CC4)[C@@H]3C(=O)O)nc(-c3c[nH]c4c(F)cc(F)cc34)c2C#N)cn1 [Example 12a, (2S,3S)-3-((5-cyano-6-(5,7-difluoro-1H-indol-3-yl)-3-fluoro-4-(1-methyl-1H-pyrazol-4-yl)pyridin-2-yl)amino)bicyclo[2.2.2]octane-2-carboxylic Acid]	0.96													

Reference: patent US10647693B2, “Inhibitors of influenza virus replication, application methods and uses thereof” (SUNSHINE LAKE PHARMA CO., LTD., priority 2016, dated 2020)
